Reference: patent US10000474B2, “Histone deacetylase inhibitors and uses thereof” (MUSC FOUNDATION FOR RESEARCH DEVELOPMENT, priority 2014, dated 2018)
Structures can show the parent of a compound that is named as a salt.

Columns and labels:
Recombinant human HDAC7 = target: T1, Recombinant human HDAC7 (Homo sapiens, UniProt Q8WUI4); experiment: HDAC inhibitory assay, HDAC7 (Boc-Lys(Tfa)-AMC substrate); type: biochemical; conditions: test concentration not given; average of triplicate
T1 construct: purchased Millipore
T1 sequence (Q8WUI4 1-952): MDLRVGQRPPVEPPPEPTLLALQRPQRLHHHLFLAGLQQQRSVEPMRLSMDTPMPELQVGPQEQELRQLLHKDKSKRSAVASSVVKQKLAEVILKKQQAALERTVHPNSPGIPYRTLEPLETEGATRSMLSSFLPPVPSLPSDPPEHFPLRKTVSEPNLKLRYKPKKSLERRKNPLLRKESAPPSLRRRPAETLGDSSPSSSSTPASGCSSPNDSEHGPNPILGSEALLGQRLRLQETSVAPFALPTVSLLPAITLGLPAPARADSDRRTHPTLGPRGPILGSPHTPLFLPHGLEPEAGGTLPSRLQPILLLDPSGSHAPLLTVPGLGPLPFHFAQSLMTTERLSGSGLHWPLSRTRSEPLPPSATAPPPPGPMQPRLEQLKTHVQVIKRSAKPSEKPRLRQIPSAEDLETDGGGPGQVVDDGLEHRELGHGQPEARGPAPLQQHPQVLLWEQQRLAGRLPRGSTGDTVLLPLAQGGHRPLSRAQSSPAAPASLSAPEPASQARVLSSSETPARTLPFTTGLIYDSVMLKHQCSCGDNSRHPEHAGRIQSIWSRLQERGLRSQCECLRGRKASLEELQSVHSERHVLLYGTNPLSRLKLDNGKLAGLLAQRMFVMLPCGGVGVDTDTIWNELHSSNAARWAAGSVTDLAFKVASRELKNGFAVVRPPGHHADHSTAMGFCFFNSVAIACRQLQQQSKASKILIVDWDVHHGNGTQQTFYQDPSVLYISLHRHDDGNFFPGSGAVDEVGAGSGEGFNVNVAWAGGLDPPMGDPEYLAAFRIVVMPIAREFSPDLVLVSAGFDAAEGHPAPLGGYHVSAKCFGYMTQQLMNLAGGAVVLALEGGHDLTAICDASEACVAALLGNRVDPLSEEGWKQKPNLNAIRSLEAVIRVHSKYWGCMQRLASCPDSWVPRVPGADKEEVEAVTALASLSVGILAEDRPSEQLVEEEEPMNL
Protocol: (§1) The compounds of Examples 1-12 and 14-16 were evaluated for their ability to act as inhibitors of human HDAC. The compound of Example 13 was not tested. Recombinant human HDAC1, HDAC2, HDAC3/NcoR2, HDAC5, HDAC6, HDAC8, HDAC9, HDAC10 and HDAC11 were purchased from BPS Biosciences. Recombinant human HDAC4 and HDAC7 were purchased from Millipore. The substrate Boc-Lys(Ac)-AMC and Boc-Lys(Tfa)-AMC were purchased from Bachem. The substrate Ac-RHK(Ac)K(Ac)-AMC was purchased from Enzo Life Sciences. Due to the different specific activities of each isoform, different amount of enzyme was used in each isoform screening assay. In these assays, trichostatin A (TSA), suberanilohydroxamic acid and diphenylacetohydroxamic acid (DPAHA) were employed as positive controls. All determinations were carried out in triplicate, and reported values were the average of these determinations, which in no case varied by more than 5%.
(§2) For evaluating the inhibition of class IIa HDACs (HDAC4, HDAC5, HDAC7 and HDAC9) and class IV HDAC (HDAC11), 10 μl of test samples were first incubated with 1 ng HDAC4 (specific activity=15400 pmol/min/μg), 5 ng HDAC5 (specific activity=2521 pmol/min/μg), 1 ng HDAC7 (specific activity=26340 pmol/min/μg), 5 ng HDAC9 (specific activity=3000 pmol/min/μg), and 500 ng HDAC11 (specific activity=1.8 pmol/min/μg) respectively. Then 25 μl of the Boc-Lys(Tfa)-AMC substrate (50 μM final concentration) was added and incubated at 37° C. for 30-60 min, and followed by adding 50 μl of developer. The last step was to read the samples in a SpectraMax M5 plate reader (Molecular Devices) at an excitation wavelength of 360 nm and an emission wavelength of 460 nm.

Recombinant human HDAC11 = target: T2, Recombinant human HDAC11 (Homo sapiens, UniProt Q96DB2); experiment: HDAC inhibitory assay, HDAC11 (Boc-Lys(Tfa)-AMC substrate); type: biochemical; conditions: test concentration not given; average of triplicate
T2 construct: purchased BPS Biosciences
T2 sequence (Q96DB2 1-347): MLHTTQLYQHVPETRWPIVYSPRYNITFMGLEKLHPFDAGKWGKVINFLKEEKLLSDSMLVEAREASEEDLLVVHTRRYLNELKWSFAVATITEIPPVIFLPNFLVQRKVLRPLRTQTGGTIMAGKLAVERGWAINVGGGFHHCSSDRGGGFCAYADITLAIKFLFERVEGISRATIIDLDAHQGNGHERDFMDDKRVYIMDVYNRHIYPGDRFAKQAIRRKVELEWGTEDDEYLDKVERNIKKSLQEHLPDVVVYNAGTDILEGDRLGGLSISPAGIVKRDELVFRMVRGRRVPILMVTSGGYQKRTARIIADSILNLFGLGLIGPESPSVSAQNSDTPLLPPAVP
Protocol: as §1, §2

HDAC 7 inhibitory activity (Recombinant human HDAC7) [%]	HDAC 11 inhibitory activity (Recombinant human HDAC11) [%]	Compound
1.3	21.8	O=C(Nc1ccccc1)c1coc(-c2ccccc2O)n1 [Example 1, 2-(2-Hydroxyphenyl)-N-phenyloxazole-4-carboxamide]
9.2	23.1	O=C(NC(c1ccccc1)c1ccccc1)c1coc(-c2ccccc2O)n1 [Example 2, N-Benzhydryl-2-(2-hydroxyphenyl)oxazole-4-carboxamide]
4.1	39.5	O=C(NCC(c1ccccc1)c1ccccc1)c1coc(-c2ccccc2O)n1 [Example 3, N-(2,2-Diphenylethyl)-2-(2-hydroxyphenyl)oxazole-4-carboxamide]
0.7	45.2	O=C(NCCC(c1ccccc1)c1ccccc1)c1coc(-c2ccccc2O)n1 [Example 4, N-(3,3-Diphenylpropyl)-2-(2-hydroxyphenyl)oxazole-4-carboxamide]
19.4	28.4	O=C(Nc1ccc(-c2ccccc2)cc1)c1coc(-c2ccccc2O)n1 [Example 5, N-([1,1′-Biphenyl]-4-yl)-2-(2-hydroxyphenyl)oxazole-4-carboxamide]
1.4	47.8	O=C(NCc1ccc(-c2ccccc2)cc1)c1coc(-c2ccccc2O)n1 [Example 6, N-([1,1′-Biphenyl]-4-ylmethyl)-2-(2-hydroxyphenyl)oxazole-4-carboxamide]
3.8	49.9	O=C(NCc1cccc2ccccc12)c1coc(-c2ccccc2O)n1 [Example 7, 2-(2-Hydroxyphenyl)-N-(naphthalen-1-ylmethyl)oxazole-4-carboxamide]
3.8	26.0	O=C(NCCc1c[nH]c2ccccc12)c1coc(-c2ccccc2O)n1 [Example 8, N-(2-(1H-Indol-3-yl)ethyl)-2-(2-hydroxyphenyl)oxazole-4-carboxamide]
1.1	33.8	O=C(NCCCCN1C(=O)c2ccccc2C1=O)c1coc(-c2ccccc2O)n1 [Example 9, N-(4-(1,3-Dioxoisoindolin-2-yl)butyl)-2-(2-hydroxyphenyl)oxazole-4-carboxamide]
2.2	30.1	O=C(NCCCCNC(=O)C(c1ccccc1)c1ccccc1)c1coc(-c2ccccc2O)n1 [Example 10, N-(4-(2,2-Diphenylacetamido)butyl)-2-(2-hydroxyphenyl)oxazole-4-carboxamide]
21.9	69.9	O=C(NCCCCNC(=S)NCCC(c1ccccc1)c1ccccc1)c1coc(-c2ccccc2O)n1 [Example 11, N-(4-(3-(3,3-Diphenylpropyl)thioureido)butyl)-2-(2-hydroxyphenyl)oxazole-4-carboxamide]
0	39.1	O=C(NCCCCNCCC(c1ccccc1)c1ccccc1)c1coc(-c2ccccc2O)n1 [Example 12, N-(4-((3,3-Diphenylpropyl)amino)butyl)-2-(2-hydroxyphenyl)oxazole-4-carboxamide hydrochloride]
9.3	49.2	O=C(O)c1ccc(CNC(=O)c2coc(-c3ccccc3O)n2)cc1 [Example 14, 4-((2-(2-Hydroxyphenyl)oxazole-4-carboxamido)methyl)benzoic acid]
9.9	20.1	O=C(Nc1ccccc1)c1ccc(CNC(=O)c2coc(-c3ccccc3O)n2)cc1 [Example 15, 2-(2-Hydroxyphenyl)-N-(4-(phenylcarbamoyl)benzyl)oxazole-4-carboxamide]
0	46.6	O=C(CNC(=O)c1coc(-c2ccccc2O)n1)Nc1ccccc1 [Example 16, 2-(2-Hydroxyphenyl)-N-(2-oxo-2-(phenylamino)ethyl)oxazole-4-carboxamide]
